pIC50: −log10 of the molar value. Like-named read-outs stand apart in the source and are kept apart here.
What was measured:
Avi-tagged FL MALT-1 = Avi-tagged FL MALT-1 (Homo sapiens (Human), UniProt Q9UDY8); assay: MALT-1 Fluorogenic Peptide Cleavage Assay (MALT1 inhibition assay); format: biochemical; settings: Ac-LRSR-AMC peptide substrate, 30 min pre-incubation, 90 min reaction at room temperature
Protocol: Inhibition of MALT1 activity by the presence of small molecules was evaluated using MALT-1 Fluorogenic Peptide Cleavage Assay. The assay utilizes a quenched AMC-labelled peptide that contains the MALT-1 recognition sequence and cleavage site (LRSR). MALT-1 mediated cleavage of the peptide relieves the quenching and leads to an increase in fluorescence at excitation (342 nm) and emission (441 nm).
The following reagents were obtained commercially and used to prepare standard reagent formulations as further described below: N-2-hydroxyethylpiperazine-N-2-ethane sulfonic acid (HEPES) (1 M, pH 7.5, stored at 4° C.), sodium citrate (stored at RT), tris(2-carboxyethyl) phosphine hydrochloride (T-CEP) (500 mM, stored at −20° C.), ethylenediaminetetraacetic acid (EDTA) (500 mM, stored at RT), dimethylsulfoxide (DMSO, stored at RT), 3-[(3-cholamido-propyl)dimethylammonio]-1-propane sulphate (CHAPS) (stored at RT), dimethylsulfoxide (DMSO), DMSO (Fisher Scientific, stored at RT), Avi-tagged FL MALT-1 (Pharmaron, stored at −70° C.), Ac-LRSR-AMC Peptide (SM Biochemicals, stored at −20° C.)., and ultrapure water (MILLLI-Q©).
The standard reagent formulations used in this assay were prepared and stored as follows. A 1.1 M solution of sodium citrate (161.3 g, 500 mL) was prepared and stored at room temperature. A 10% (w/v) CHAPS solution (2.0 g, 20 mL) was prepared and stored at 4° C. A 500 mM HEPES solution having pH of 6.89 was prepared from 200 mL of a 1 M HEPES solution having a pH of 7.5 using concentrated hydrochloric acid and brought to a final volume of 400 mL with MILLI-Q© H2O. The substrate, 10 mM Ac-LRSR-AMC Peptide, was prepared (10 mg, 1.370 mL DMSO) and stored at −20° C.
Compounds were plated to provide a 2% DMSO final concentration using a ProxiPlate-384 Plus F Black 384-shallow well microplate. The assay-ready plates were equilibrated to room temperature. A reaction buffer (30 mL total volume) was prepared by combining HEPES (pH 6.89, 25 mM, 1.5 mL), sodium citrate (660 mM, 18.0 mL), T-CEP (1 mM, 0.06 mL), EDTA ([…], 0.06 mL), CHAPS (0.05%, 0.15 mL), DMSO (2%, 0.6 mL), and MILLI-Q© H2O (10.23 mL; 9.63 mL when backfilled to 2% DMSO) followed by thorough mixing. DMSO was added only when compound plates had not been DMSO-backfilled to 2%.
MALT-1 was thawed and kept on ice. Peptide substrate was thawed on the bench under ambient conditions. A MALT-1 enzyme working stock was prepared from Avi-tagged FL MALT-1 (40 nM in a prepared reagent volume of 16.5 μL) and the reaction buffer (13.0 mL). MALT1 working stock (5 μL) was added to each well of the microplate. MALT-1 was pre-incubated with compounds for 30 minutes at room temperature.
Two substrate working stocks (Km and 10×Km) were prepared. The 1×Km substrate was prepared from Ac-LRSR-AMC Peptide (50 μM in a prepared reagent volume of 35.0 μL) and the reaction buffer (6.965 mL). The 10×Km substrate was prepared from Ac-LRSR-AMC Peptide (280 μM in a prepared reagent volume of 196.0 μL) and the reaction buffer (6.804 mL). The reaction was initiated by the addition of substrate working stock (5 μL, 50 μM) to Km plates and the addition of substrate working stock (5 μL 280 μM) to 10×Km plates. The plates were covered and incubated on the bench at room temperature for 90 minutes.
Fluorescence intensity was determined using a CLARIOstar microplate reader (BMG LABTECH) using the optimised AMC mode. Before taking readings, a 70% gain was applied on the neutral control well. Compound data were normalised to % Inhibition and used to plot sigmoidal concentration response curves to yield various parameters including IC50.

[1] = test system: NF-kB reporter in Jurkat cells; assay: NF-kB reporter assay in Jurkat cells stimulated with aCD3/aCD28/PMA; format: cell-based
Protocol: Jurkat cells were maintained in complete RPMI 1640 media supplemented with 10% FBS. Prior to the assay, 120 nL of the serial diluted compound was added in each well of 384-well flat bottom white plate (Corning #3570) by using liquid handler Echo550. Jurkat cells were harvested by centrifugation at 120 g for 10 min and resuspended in fresh RPMI 1640 media without serum. […] (25,000 cells) were seeded in each well of 384-well plate containing compound. After 1 hr incubation at 37° C. in a 5% CO2 incubator, […] of diluted aCD3/aCD28/PMA (final concentration at […] and […], respectively) in RPMI 1640 without serum were added to each well. After incubation at 37° C. in 5% CO2 for 4 hr, […] of One-Glo reagent (Promega #E6120) was added into each well. The plate was left at room temperature for 5 min and the signal was measured on EnVision (PerkinElmer).
Compounds in which an IC50 was not measured are designated as “N/A”.

[2] = Homo sapiens; Jurkat cells, 1 hr compound pre-incubation, aCD3/aCD28/PMA stimulation 4 hr, One-Glo readout; read-out: NF-kB Reporter Assay IC50
[3] = Jurkat cells, 1 hr compound pre-incubation, aCD3/aCD28/PMA stimulation 4 hr, One-Glo readout; read-out: NF-kB Reporter Assay IC50

Chain of Avi-tagged FL MALT-1 (Q9UDY8 whole entry): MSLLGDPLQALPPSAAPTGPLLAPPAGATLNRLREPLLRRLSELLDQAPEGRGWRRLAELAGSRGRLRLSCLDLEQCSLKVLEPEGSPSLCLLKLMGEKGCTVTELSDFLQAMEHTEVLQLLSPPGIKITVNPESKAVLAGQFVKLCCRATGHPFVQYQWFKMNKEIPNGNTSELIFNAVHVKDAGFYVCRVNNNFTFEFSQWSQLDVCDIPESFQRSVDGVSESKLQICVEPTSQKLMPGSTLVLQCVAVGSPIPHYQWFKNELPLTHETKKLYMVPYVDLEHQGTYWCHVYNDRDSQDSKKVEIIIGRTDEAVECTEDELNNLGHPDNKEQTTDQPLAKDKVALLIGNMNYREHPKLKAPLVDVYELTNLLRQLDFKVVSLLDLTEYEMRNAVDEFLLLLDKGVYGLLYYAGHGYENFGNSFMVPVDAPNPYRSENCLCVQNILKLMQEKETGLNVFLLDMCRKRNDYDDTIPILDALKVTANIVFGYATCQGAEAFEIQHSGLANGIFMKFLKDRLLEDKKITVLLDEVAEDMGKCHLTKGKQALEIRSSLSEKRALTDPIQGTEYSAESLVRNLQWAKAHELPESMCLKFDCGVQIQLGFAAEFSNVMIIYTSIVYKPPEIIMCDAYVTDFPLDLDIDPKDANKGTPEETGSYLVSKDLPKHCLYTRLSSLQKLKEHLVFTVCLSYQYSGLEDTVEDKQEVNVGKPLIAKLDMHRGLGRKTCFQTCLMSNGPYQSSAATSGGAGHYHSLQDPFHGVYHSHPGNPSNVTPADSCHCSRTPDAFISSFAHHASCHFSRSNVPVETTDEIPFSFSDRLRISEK

| pIC50 (Avi-tagged FL MALT-1) | pIC50 [1, 2] | pIC50 [1, 3] | Structure (SMILES) | pIC50 ([1]; read-out: NF-kB Reporter Assay IC50; Jurkat cells, 1 hr compound pre-incubation, aCD3/aCD28/PMA stimulation 4 hr, One-Glo readout) |
| --- | --- | --- | --- | --- |
| ≥ 6.40 | > 6.40 | – | COc1ncc2cnn(C)c2c1NS(=O)(=O)c1cnn(-c2cc(C(C)OC)ccn2)c1 (single isomer, unassigned) [Compound I-272, N-(6-methoxy-1-methyl-1H-pyrazolo[4,3-c]pyridin-7-yl)-1-(4-(1-methoxyethyl)pyridin-2-yl)-1H-pyrazole-4-sulfonamide] | – |
| ≥ 6.40 | – | > 6.40 | COc1ncc2cnn(C)c2c1NS(=O)(=O)c1cnn(-c2cc(C(C)OC)ccn2)c1 (single isomer, unassigned) [Compound I-273, N-{6-methoxy-1-methylpyrazolo[4,3-c]pyridin-7-yl}-1-{4-[1-methoxyethyl]pyridin-2-yl}pyrazole-4-sulfonamide] | – |
| ≥ 6.40 | > 6.40 | – | COc1ccc2cnn(C)c2c1NS(=O)(=O)c1cnn(-c2cc(C(C)OC)ccn2)c1 (single isomer, unassigned) [Compound I-290, N-(6-methoxy-1-methyl-1H-indazol-7-yl)-1-(4-(1-methoxyethyl)pyridin-2-yl)-1H-pyrazole-4-sulfonamide] | – |
| ≥ 6.40 | – | > 6.40 | COc1ccc2cnn(C)c2c1NS(=O)(=O)c1cnn(-c2cc(C(C)OC)ccn2)c1 (single isomer, unassigned) [Compound I-291, N-(6-methoxy-1-methyl-1H-indazol-7-yl)-1-(4-(1-methoxyethyl)pyridin-2-yl)-1H-pyrazole-4-sulfonamide] | – |
| 6.00 to 6.40 | 6.00 to 6.40 | – | COc1ncc2cnn(C)c2c1NS(=O)(=O)c1cnn(-c2cc(C(C)O)ccn2)c1 (single isomer, unassigned) [Compound I-292, 1-(4-(1-hydroxyethyl)pyridin-2-yl)-N-(6-methoxy-1-methyl-1H-pyrazolo[4,3-c]pyridin-7-yl)-1H-pyrazole-4-sulfonamide] | – |
| ≥ 6.40 | – | 6.00 to 6.40 | COc1ncc2cnn(C)c2c1NS(=O)(=O)c1cnn(-c2cc(C(C)O)ccn2)c1 (single isomer, unassigned) [Compound I-293, 1-(4-(1-hydroxyethyl)pyridin-2-yl)-N-(6-methoxy-1-methyl-1H-pyrazolo[4,3-c]pyridin-7-yl)-1H-pyrazole-4-sulfonamide] | – |
| 6.00 to 6.40 | > 6.40 | – | CCC(C)(O)c1ccnc(-n2cc(S(=O)(=O)Nc3c(OC)ccc4cnn(C)c34)cn2)c1 (single isomer, unassigned) [Compound I-315, 1-(4-(2-hydroxybutan-2-yl)pyridin-2-yl)-N-(6-methoxy-1-methyl-1H-indazol-7-yl)-1H-pyrazole-4-sulfonamide] | – |
| 5.60 to 6.00 | – | – | CCc1ccc2cnn(C)c2c1NS(=O)(=O)c1cnn(-c2ccnc(C(F)(F)F)n2)c1 [Compound I-11, N-(6-Ethyl-1-Methyl-1H-Indazol-7-yl)-1-(2-(Trifluoromethyl) Pyrimidin-4-yl)-1H-Pyrazole-4-Sulfonamide] | – |
| < 5.60 | – | – | CCc1ccc2cnn(C)c2c1NS(=O)(=O)c1cnn(-c2cccc(C(F)(F)F)n2)c1 [Compound I-12, N-(6-Ethyl-1-Methyl-1H-Indazol-7-yl)-1-(2-(Trifluoromethyl) Pyridin-2-yl)-1H-Pyrazole-4-Sulfonamide] | – |
| < 5.60 | – | – | Cn1ncc2cccc(NS(=O)(=O)c3cnn(-c4cccc(C(F)(F)F)n4)c3)c21 [Compound I-13, N-(1-Methyl-1H-Indazol-7-yl)-1-(6-(Trifluoromethyl)Pyridin-2-yl)-1H-Pyrazole-4-Sulfonamide] | – |

| Structure (SMILES) | pIC50 (Avi-tagged FL MALT-1) | pIC50 [1, 2] | pIC50 [1, 3] | pIC50 ([1]; read-out: NF-kB Reporter Assay IC50; Jurkat cells, 1 hr compound pre-incubation, aCD3/aCD28/PMA stimulation 4 hr, One-Glo readout) |
| --- | --- | --- | --- | --- |
| CCC(O)c1ccnc(-n2cc(S(=O)(=O)Nc3c(OC)ccc4cnn(C)c34)cn2)c1 (single isomer, unassigned) [Compound I-280, 1-(4-(1-hydroxypropyl)pyridin-2-yl)-N-(6-methoxy-1-methyl-1H-indazol-7-yl)-1H-pyrazole-4-sulfonamide] | 6.00 to 6.40 | – | – | > 6.40 |
| CCC(O)c1ccnc(-n2cc(S(=O)(=O)Nc3c(OC)ccc4cnn(C)c34)cn2)c1 (single isomer, unassigned) [Compound I-281, 1-(4-(1-hydroxypropyl)pyridin-2-yl)-N-(6-methoxy-1-methyl-1H-indazol-7-yl)-1H-pyrazole-4-sulfonamide] | 6.00 to 6.40 | > 6.40 | – | – |
